# Reference: patent US20250320506A1, “ULTR[…] M[…]-FREE […] CASCADED AMP[…] POSITIVE FEEDBACK” (Northwestern University, priority 2019, published 2025)
# Tests used:
# [1] = test system: cell-free protein synthesis; test: titration of analyte against an unregulated reporter plasmid (pT7-sfGFP) in a cell-free gene expression reaction; format: biochemical, E. coli; conditions: 100 μM CuSO4; transcription and translation in vitro
# Text: FIG. 4A-D. FIG. 4 illustrates various aspects of the biosensors of the present disclosure. (A) The “enriched” extract that contains the allosteric transcription factor can be mixed against a “blank” unenriched extract to modulate the concentration of the transcription factor in the reaction. (B) For tighter control and specificity of a cascaded system, if T7 RNA polymerase is used to drive expression of the allosteric transcription factor in the host strain of extract, an engineered variant of T7 RNAP may be used as the output of the regulated promoter. Exemplary T7 RNAP mutants are illustrated. […] The E. coli RNAP is used to express four T7 RNAP variants from a mock sensor plasmid (5 nM) that contains the consensus E. coli promoter J23119. The corresponding reporter plasmid is added at 5 nM. The kinetics of T7 RNAP synthesis lead to a time delay of about 20-30 minutes relative to a reaction that uses purified WT T7 RNAP. […] Reporter yields are from triplicates of four-hour sfGFP yields on a plate reader at 30° C. […]
# A series of tuning experiments are next used to optimize the sensor. […] This experiment is an isothermal cell-free gene expression reaction held at 30° C. in a plate reader for ˜4 hours using an established set of physiochemical conditions to maximize protein production in general. […]
# lead sensor = test: crosstalk between four metal-sensing aTFs using cell-free response; format: biochemical; conditions: heatmap
# Text: FIG. 21. Design of mitigating cross-talk of sensors. Experimental measurement of crosstalk between four metal-sensing aTFs using cell-free response. Heatmap is colored more brightly to indicate stronger fluorescent signal.
SMILES,effect on cell-free protein synthesis [1],crosstalk (fluorescent signal) of metal-sensing aTF sensor with non-cognate metal (lead sensor)
O=S(=O)([O-])[O-].[Cu+2] [CuSO4],shuts down cell-free protein synthesis,
[Cd] [cadmium],,crosstalk for the lead sensor with cadmium
